In the NIST ThermoML archive (doi:10.1016/j.jct.2006.03.014):
Numbers after ± are expanded uncertainties.

Experiment: xn = mol fraction of the nth substance listed
Conditions: 101 kPa, Liquid; for viscosity: Capillary tube (Ostwald / Ubbelohde) method; for mass density: Pycnometric method

CC1OC(C)OC(C)O1 (configuration not stated) [2,4,6-trimethyl-1,3,5-trioxane] + CCOC(C)=O
Conditions | mass density, 298.15 K [kg/m3] | mass density, 303.15 K [kg/m3] | mass density, 308.15 K [kg/m3] | viscosity, 298.15 K [mPa·s] | viscosity, 303.15 K [mPa·s] | viscosity, 308.15 K [mPa·s]
x1 = 0.0203 | 896.3 ± 1.2 | 890 ± 1.2 | 883.7 ± 1.2 | 0.435 ± 0.008 | 0.405 ± 0.008 | 0.392 ± 0.008
x1 = 0.04 | 898.7 ± 1.2 | 892.4 ± 1.2 | 886 ± 1.2 | 0.439 ± 0.008 | 0.411 ± 0.008 | 0.395 ± 0.008
x1 = 0.0601 | 901.1 ± 1.2 | 894.8 ± 1.2 | 888.5 ± 1.3 | 0.446 ± 0.008 | 0.419 ± 0.008 | 0.4 ± 0.008
x1 = 0.0799 | 903.5 ± 1.2 | 897.2 ± 1.3 | 890.8 ± 1.3 | 0.451 ± 0.008 | 0.421 ± 0.008 | 0.407 ± 0.008
x1 = 0.1002 | 905.8 ± 1.2 | 899.6 ± 1.3 | 893.2 ± 1.3 | 0.457 ± 0.008 | 0.428 ± 0.008 | 0.412 ± 0.008
x1 = 0.1957 | 916.6 ± 1.2 | 910.4 ± 1.3 | 904 ± 1.3 | 0.491 ± 0.009 | 0.455 ± 0.008 | 0.439 ± 0.008
x1 = 0.3 | 927.8 ± 1.2 | 921.6 ± 1.3 | 915.2 ± 1.3 | 0.53 ± 0.009 | 0.492 ± 0.008 | 0.468 ± 0.008
x1 = 0.4 | 937.9 ± 1.3 | 931.8 ± 1.3 | 925.4 ± 1.3 | 0.567 ± 0.009 | 0.53 ± 0.009 | 0.503 ± 0.009
x1 = 0.5001 | 947.4 ± 1.3 | 941.3 ± 1.3 | 935 ± 1.3 | 0.61 ± 0.009 | 0.574 ± 0.009 | 0.539 ± 0.009
x1 = 0.6001 | 956.4 ± 1.3 | 950.4 ± 1.3 | 944.1 ± 1.3 | 0.663 ± 0.01 | 0.628 ± 0.01 | 0.586 ± 0.009
x1 = 0.7 | 965 ± 1.3 | 959 ± 1.3 | 952.7 ± 1.3 | 0.739 ± 0.011 | 0.691 ± 0.01 | 0.639 ± 0.01
x1 = 0.8001 | 973.1 ± 1.3 | 967.3 ± 1.3 | 960.9 ± 1.4 | 0.832 ± 0.012 | 0.766 ± 0.011 | 0.708 ± 0.01
x1 = 0.9 | 980.9 ± 1.3 | 975.1 ± 1.3 | 968.8 ± 1.4 | 0.947 ± 0.013 | 0.861 ± 0.012 | 0.789 ± 0.011
x1 = 1 | 988.4 ± 1.3 | 982.6 ± 1.3 | 976.4 ± 1.4 | 1.107 ± 0.015 | 1.001 ± 0.014 | 0.907 ± 0.013

CC1OC(C)OC(C)O1 (configuration not stated) [2,4,6-trimethyl-1,3,5-trioxane] + COC(C)=O
Conditions | mass density, 298.15 K [kg/m3] | mass density, 303.15 K [kg/m3] | mass density, 308.15 K [kg/m3] | viscosity, 298.15 K [mPa·s] | viscosity, 303.15 K [mPa·s] | viscosity, 308.15 K [mPa·s]
x1 = 0.0203 | 928.4 ± 1.3 | 921.5 ± 1.2 | 918 ± 1 | 0.378 ± 0.008 | 0.359 ± 0.007 | 0.345 ± 0.007
x1 = 0.0405 | 930.1 ± 1.3 | 923.3 ± 1.2 | 919.7 ± 1.1 | 0.388 ± 0.008 | 0.367 ± 0.008 | 0.35 ± 0.007
x1 = 0.0601 | 931.8 ± 1.3 | 925 ± 1.2 | 921.4 ± 1.1 | 0.398 ± 0.008 | 0.373 ± 0.008 | 0.355 ± 0.007
x1 = 0.0807 | 933.4 ± 1.3 | 926.7 ± 1.2 | 923.1 ± 1.1 | 0.408 ± 0.008 | 0.38 ± 0.008 | 0.359 ± 0.007
x1 = 0.1002 | 935 ± 1.3 | 928.4 ± 1.2 | 924.7 ± 1.1 | 0.416 ± 0.008 | 0.386 ± 0.008 | 0.362 ± 0.008
x1 = 0.201 | 942.9 ± 1.3 | 936.6 ± 1.2 | 932.6 ± 1.1 | 0.455 ± 0.008 | 0.41 ± 0.008 | 0.372 ± 0.008
x1 = 0.3009 | 950.3 ± 1.3 | 944.2 ± 1.2 | 939.8 ± 1.2 | 0.489 ± 0.009 | 0.429 ± 0.008 | 0.374 ± 0.008
x1 = 0.397 | 956.9 ± 1.3 | 951 ± 1.2 | 946.3 ± 1.2 | 0.522 ± 0.009 | 0.45 ± 0.009 | 0.377 ± 0.008
x1 = 0.5001 | 963.5 ± 1.3 | 957.7 ± 1.2 | 952.7 ± 1.2 | 0.566 ± 0.01 | 0.481 ± 0.009 | 0.39 ± 0.008
x1 = 0.7002 | 974.8 ± 1.3 | 969.1 ± 1.3 | 963.5 ± 1.3 | 0.696 ± 0.011 | 0.593 ± 0.01 | 0.479 ± 0.009
x1 = 0.8005 | 979.8 ± 1.3 | 974 ± 1.3 | 968.2 ± 1.3 | 0.795 ± 0.012 | 0.688 ± 0.011 | 0.57 ± 0.01
x1 = 0.9001 | 984.3 ± 1.3 | 978.5 ± 1.3 | 972.5 ± 1.3 | 0.925 ± 0.013 | 0.816 ± 0.012 | 0.704 ± 0.011
x1 = 1 | 988.4 ± 1.3 | 982.6 ± 1.3 | 976.4 ± 1.4 | 1.107 ± 0.015 | 1.001 ± 0.014 | 0.907 ± 0.013
